In patent publication US9133116B2, “Bicyclic compounds” (PANACEA BIOTEC LTD., priority 2010, dated 2015):
Like-named read-outs stand apart in the source and are kept apart here. Marks after values point to notes of the source that are not given here.

Legend:
[1] = test system: male SWISS albino mice; test: Forced Swim Test in mice; assay type: in vivo; conditions: oral, 15 min before test, immobility in last 4 min of 6 min
Procedure: This test was conducted according to the method of Li, X., et al., Metabotropic Glutamate 5 Receptor Antagonism Is Associated with Antidepressant-Like Effects in Mice. J Pharmacol Exp Ther., 319(1):254-259 (2006), with slight modifications.
A test compound was suspended in 0.25% CMC, unless otherwise specified, and this solution was orally administered to male SWISS albino mice (7 to 9 week old). 15 min later, the mice were placed in a water tank having a water depth of 15 cm and a water temperature of 25±1° C. and immediately thereafter allowed to swim for 6 min. Then, a time during which the mouse was immobile (immobility time) was measured for the last 4 min.
Cleversys Software (Forced Swim Scan) was used for carrying out Forced Swim Test in mice.

[2] = molecular target: T1, SERT (Homo sapiens, UniProt P31645); test: Serotonin Binding Assay ([3H]-Citalopram Binding Assay); conditions: NE = Not Effective; for inhibition at 0.1 µM / inhibition at 1 µM: 1 h
T1 construct: purchased Perkin Elmer
Procedure: 2. Serotonin Binding Assay
The Membrane protein of 0.4 mL size vial, with protein concentration of 9.0 mg/ml was bought from Perkin Elmer, stored in −80° C. until required.
[^3H]-Citalopram Binding Assay:
(§1) Each well of 96 well microtitre plate was set up to contain the following:
The microtitre plates were incubated at 25° C. for 60 min; reaction was stopped by filtration in GF/B filter plate (presoaked in 0.5% Polyethylenimine) and then added 50 μL of microscint 40. Radioactivity was measured on Liquid Scintillation counter (Perkin Elmer).

[3] = molecular target: T2, NET (Homo sapiens, UniProt P23975); test: Norepinephrine Binding Assay ([3H]-Nisoxetine Binding Assay); conditions: NE = Not Effective; for inhibition at 0.1 µM / inhibition at 1 µM: 1 h
T2 construct: purchased Perkin Elmer
Procedure: 1. Norepinephrine Binding Assay
The Membrane protein of 0.4 mL size vial, with protein concentration of 3.0 mg/ml was bought from Perkin Elmer, stored in −80° C. until required.
[^3H]-Nisoxetine Binding Assay:
as §1
The microtitre plates were incubated at 4° C. for 60 mins; reaction was stopped by filtration in GF/B filter plate (presoaked in 0.5% Polyethylenimine) and then added 50 μl of microscint 40. Radioactivity was measured on Liquid Scintillation counter (Perkin Elmer).

[4] = molecular target: T3, DAT (Homo sapiens, UniProt Q01959); test: Dopamine Binding Assay ([3H]-WIN35,428 Binding Assay); conditions: NE = Not Effective; for inhibition at 1 µM / inhibition at 0.1 µM: 2 h; for inhibition at 0.1 µM: read-out: DAT % WIN 35428 displacement 100 nM, 100 nM test compound
T3 construct: purchased Perkin Elmer
Procedure: 3. Dopamine Binding Assay
The Membrane protein of 0.4 mL size vial, with protein concentration of 12 mg/mL was bought from Perkin Elmer, stored in −80° C. until required.
[^3H]-WIN35,428 Binding Assay:
as §1
The microtitre plates were incubated at 4° C. for 120 min; reaction was stopped by filtration in GF/B filter plate (presoaked in 0.5% Polyethylenimine) and then added 50 μL of microscint 40. Radioactivity was measured on Liquid Scintillation counter (Perkin Elmer).

[5] = read-out: SERT % Citalopram displacement 100 nM, 100 nM test compound
[6] = read-out: SERT % Citalopram displacement 1 μM, 1 μM test compound
[7] = read-out: NET % Nisoxetine displacement 100 nM, 100 nM test compound
[8] = read-out: NET % Nisoxetine displacement 1 μM, 1 μM test compound
[9] = read-out: DAT % WIN 35428 displacement 1 μM, 1 μM test compound
[10] = 1 μM test compound, read-out: NET % Nisoxetine displacement 1 μM
[11] = 100 nM test compound, read-out: SERT % Citalopram displacement 100 nM
[12] = 1 μM test compound, read-out: SERT % Citalopram displacement 1 μM
[13] = 1 μM test compound, read-out: DAT % WIN 35428 displacement 1 μM

T3 sequence (Q01959 whole entry): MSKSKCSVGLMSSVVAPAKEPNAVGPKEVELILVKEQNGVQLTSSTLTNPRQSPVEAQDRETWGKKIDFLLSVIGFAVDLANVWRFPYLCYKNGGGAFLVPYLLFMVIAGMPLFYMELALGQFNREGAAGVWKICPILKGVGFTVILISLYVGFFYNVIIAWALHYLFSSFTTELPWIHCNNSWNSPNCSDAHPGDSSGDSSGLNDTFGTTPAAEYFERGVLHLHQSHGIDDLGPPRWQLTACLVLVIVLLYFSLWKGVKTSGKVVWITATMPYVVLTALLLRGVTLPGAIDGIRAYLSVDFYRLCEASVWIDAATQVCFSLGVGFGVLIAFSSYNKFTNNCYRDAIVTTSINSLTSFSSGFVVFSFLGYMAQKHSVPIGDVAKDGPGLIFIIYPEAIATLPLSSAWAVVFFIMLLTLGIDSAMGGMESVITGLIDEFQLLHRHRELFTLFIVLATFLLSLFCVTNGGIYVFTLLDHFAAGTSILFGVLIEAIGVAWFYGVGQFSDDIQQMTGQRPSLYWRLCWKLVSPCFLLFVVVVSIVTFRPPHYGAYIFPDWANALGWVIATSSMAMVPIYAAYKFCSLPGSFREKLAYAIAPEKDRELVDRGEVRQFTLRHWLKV
T1 sequence (P31645 whole entry): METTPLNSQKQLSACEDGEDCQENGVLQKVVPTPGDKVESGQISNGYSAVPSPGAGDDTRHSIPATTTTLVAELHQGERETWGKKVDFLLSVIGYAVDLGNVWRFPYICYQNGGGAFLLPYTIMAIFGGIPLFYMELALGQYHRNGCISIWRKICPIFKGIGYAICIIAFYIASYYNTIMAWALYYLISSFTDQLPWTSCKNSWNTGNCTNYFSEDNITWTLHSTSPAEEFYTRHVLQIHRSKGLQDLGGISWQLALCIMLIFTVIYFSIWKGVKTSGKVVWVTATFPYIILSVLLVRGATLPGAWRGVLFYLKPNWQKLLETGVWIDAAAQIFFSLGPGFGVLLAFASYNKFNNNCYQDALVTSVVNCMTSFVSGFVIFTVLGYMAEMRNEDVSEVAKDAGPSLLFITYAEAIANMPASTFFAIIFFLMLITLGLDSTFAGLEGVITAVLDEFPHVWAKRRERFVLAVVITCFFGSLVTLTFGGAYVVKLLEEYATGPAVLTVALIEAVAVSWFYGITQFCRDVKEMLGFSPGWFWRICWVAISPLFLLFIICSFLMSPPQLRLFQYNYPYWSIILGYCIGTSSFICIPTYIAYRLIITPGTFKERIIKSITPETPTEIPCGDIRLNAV
T2 sequence (P23975 whole entry): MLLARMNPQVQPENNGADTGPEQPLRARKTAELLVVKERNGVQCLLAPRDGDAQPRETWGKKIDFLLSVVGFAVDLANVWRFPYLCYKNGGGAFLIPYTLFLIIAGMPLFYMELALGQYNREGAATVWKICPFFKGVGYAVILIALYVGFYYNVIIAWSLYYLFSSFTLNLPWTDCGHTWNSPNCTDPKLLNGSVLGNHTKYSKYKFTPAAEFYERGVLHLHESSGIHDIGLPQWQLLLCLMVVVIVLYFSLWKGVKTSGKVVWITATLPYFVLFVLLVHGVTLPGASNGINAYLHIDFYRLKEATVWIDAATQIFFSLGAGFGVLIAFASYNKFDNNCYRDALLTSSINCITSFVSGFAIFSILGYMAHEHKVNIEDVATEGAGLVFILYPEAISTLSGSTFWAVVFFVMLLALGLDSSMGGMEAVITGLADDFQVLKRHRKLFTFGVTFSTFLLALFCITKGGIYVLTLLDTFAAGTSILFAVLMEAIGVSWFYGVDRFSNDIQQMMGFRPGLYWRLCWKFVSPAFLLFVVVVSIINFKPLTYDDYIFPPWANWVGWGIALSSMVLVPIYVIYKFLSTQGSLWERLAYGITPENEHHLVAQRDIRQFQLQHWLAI

CON=C(c1ccc(Cl)c(Cl)c1)C1C2CNCC21.Cl (stereo not drawn)
% decrease in immobility time (dose 32 mg/kg) ([1]; vehicle de-ionized water): 80.0 ± 3.8^z %

CON=CC1C2CNCC12c1ccc(Cl)c(Cl)c1.Cl (stereo not drawn)
% decrease in immobility time (dose 32 mg/kg) ([1]; vehicle de-ionized water): 87.5 ± 4.1^z %

CCON=CC1C2CNCC12c1ccc(Cl)c(Cl)c1.Cl (stereo not drawn)
% decrease in immobility time (dose 32 mg/kg) ([1]; suspended in 0.25% CMC): 83.1 ± 9.6%

CON=CC1C2CNCC12c1ccc(Cl)cc1.Cl (stereo not drawn)
% decrease in immobility time (dose 32 mg/kg) ([1]; vehicle de-ionized water): 50.2 ± 14.7^z %

CON=CC1C2CNCC12c1ccc(F)cc1.Cl (stereo not drawn)
% decrease in immobility time (dose 32 mg/kg) ([1]; vehicle de-ionized water): 55.1 ± 13.0^z %

CON=CC1C2CNCC12c1ccccc1.Cl (stereo not drawn)
% decrease in immobility time (dose 32 mg/kg) ([1]; suspended in 0.25% CMC): 60.4 ± 12.6%

CON=C(c1ccccc1)C1C2CNCC21 (stereo not drawn)
inhibition at 0.1 µM [2, 5]: 18.4% | inhibition at 1 µM [2, 6]: 27.5%

CON=C(c1ccc2ccccc2c1)C1C2CNCC21 (stereo not drawn)
inhibition at 0.1 µM [3, 7]: 21.8% | inhibition at 1 µM [3, 8]: 60.5% | inhibition at 0.1 µM [2, 5]: 77.2% | inhibition at 1 µM [2, 6]: 93.4%

ON=C(c1ccc(Cl)c(Cl)c1)C1C2CNCC21 (stereo not drawn)
inhibition at 1 µM [3, 8]: 25.1% | inhibition at 0.1 µM [2, 5]: 29.8% | inhibition at 1 µM [2, 6]: 74.8% | inhibition at 1 µM [4, 9]: 49.6%

CCON=C(c1ccc(Cl)c(Cl)c1)C1C2CNCC21 (stereo not drawn)
inhibition at 0.1 µM [3, 7]: 18.2% | inhibition at 1 µM [3, 8]: 61.5% | inhibition at 0.1 µM [2, 5]: 49.8% | inhibition at 1 µM [2, 6]: 87.5% | inhibition at 1 µM [4, 9]: 71%

C=CCON=C(c1ccc(Cl)c(Cl)c1)C1C2CNCC21 (stereo not drawn)
inhibition at 0.1 µM ([3]; 100 nM test compound, read-out: NET % Nisoxetine displacement 100 nM): 14.3% | inhibition at 1 µM [3, 10]: 71.3% | inhibition at 0.1 µM [2, 11]: 72.6% | inhibition at 1 µM [2, 12]: 94.4% | inhibition at 1 µM [4, 13]: 78%

Clc1ccc(C(=NOCC2CC2)C2C3CNCC32)cc1Cl (stereo not drawn)
inhibition at 1 µM [3, 10]: 33.9% | inhibition at 0.1 µM [2, 11]: 69.8% | inhibition at 1 µM [2, 12]: 95.5% | inhibition at 1 µM [4, 13]: 68.7%

Clc1ccc(C(=NOc2ccccc2)C2C3CNCC32)cc1Cl (stereo not drawn)
inhibition at 1 µM [3, 10]: 19.1% | inhibition at 1 µM [2, 12]: 61.4%

Clc1ccc(C(=NOCc2ccccc2)C2C3CNCC32)cc1Cl (stereo not drawn)
inhibition at 1 µM [3, 10]: 27.2% | inhibition at 0.1 µM [2, 11]: 30.4% | inhibition at 1 µM [2, 12]: 85.8% | inhibition at 1 µM [4, 13]: 36%

CON=CC1C2CNCC12c1ccc(Cl)c(Cl)c1 (stereo not drawn)
inhibition at 0.1 µM [3, 7]: 37.4% | inhibition at 1 µM [3, 8]: 82.3% | inhibition at 0.1 µM [2, 5]: 65% | inhibition at 1 µM [2, 6]: 91.8% | inhibition at 0.1 µM [4]: 30.6% | inhibition at 1 µM [4, 9]: 66.3%

CCON=CC1C2CNCC12c1ccc(Cl)c(Cl)c1 (stereo not drawn)
inhibition at 0.1 µM [2, 5]: 83.7% | inhibition at 1 µM [2, 6]: 94.4% | inhibition at 0.1 µM [4]: 16.7% | inhibition at 1 µM [4, 9]: 71.8%

Clc1ccc(C23CNCC2C3C=NOCc2ccccc2)cc1Cl (stereo not drawn)
inhibition at 0.1 µM [3, 7]: 34.6% | inhibition at 1 µM [3, 8]: 73.6% | inhibition at 0.1 µM [2, 5]: 23.3% | inhibition at 1 µM [2, 6]: 89% | inhibition at 0.1 µM [4]: 27% | inhibition at 1 µM [4, 9]: 39%

Fc1ccc(CON=CC2C3CNCC23c2ccc(Cl)c(Cl)c2)cc1 (stereo not drawn)
inhibition at 1 µM [3, 10]: 74.2% | inhibition at 0.1 µM [2, 11]: 12.5% | inhibition at 1 µM [2, 12]: 88.8% | inhibition at 1 µM [4, 13]: 40.9%

CON=CC1C2CNCC12c1ccc(Cl)cc1 (stereo not drawn)
inhibition at 1 µM [3, 8]: 54.5% | inhibition at 0.1 µM [2, 5]: 37.8% | inhibition at 1 µM [2, 6]: 85.6% | inhibition at 1 µM [4, 9]: 29.9%

CON=CC1C2CNCC12c1ccc(F)cc1 (stereo not drawn)
inhibition at 0.1 µM [2, 5]: 43.5% | inhibition at 1 µM [2, 6]: 85.1%

CON=CC1C2CNCC12c1ccccc1 (stereo not drawn)
inhibition at 0.1 µM [2, 5]: 39.2% | inhibition at 1 µM [2, 6]: 79.9%

CON=C(c1ccc(Cl)c(Cl)c1)C1C2CNCC21.Cl (stereo not drawn) [drawing 66]
inhibition at 0.1 µM [3, 7]: 15.6% | inhibition at 1 µM [3, 8]: 75.6% | inhibition at 0.1 µM [2, 5]: 43.1% | inhibition at 1 µM [2, 6]: 84.8% | DAT % WIN 35428 displacement 1 μM ([4]; 1 μM test compound): 32.76%

CON=C(c1ccc(Cl)c(Cl)c1)C1C2CNCC21 (stereo not drawn) [drawing 72]
NET % Nisoxetine displacement 100 nM ([3]; 100 nM test compound): 24.48% | NET % Nisoxetine displacement 1 μM ([3]; 1 μM test compound): 75.97% | SERT % Citalopram displacement 100 nM ([2]; 100 nM test compound): 50.25% | SERT % Citalopram displacement 1 μM ([2]; 1 μM test compound): 90.07% | DAT % WIN 35428 displacement 1 μM ([4]; 1 μM test compound): 64.58% | inhibition at 0.1 µM [4]: 28.1%
